According to US9212182B2, “Bicyclic sulfonamide compounds as sodium channel inhibitors” (AMGEN INC., priority 2013, dated 2015):
Like-named read-outs stand apart in the source and are kept apart here.

Target: Nav 1.7 (Homo sapiens (Human), UniProt Q15858)
Test: in-vitro Nav 1.7 PX (IC50)
Type: cell-based

Sequence of Nav 1.7 (Q15858 whole entry): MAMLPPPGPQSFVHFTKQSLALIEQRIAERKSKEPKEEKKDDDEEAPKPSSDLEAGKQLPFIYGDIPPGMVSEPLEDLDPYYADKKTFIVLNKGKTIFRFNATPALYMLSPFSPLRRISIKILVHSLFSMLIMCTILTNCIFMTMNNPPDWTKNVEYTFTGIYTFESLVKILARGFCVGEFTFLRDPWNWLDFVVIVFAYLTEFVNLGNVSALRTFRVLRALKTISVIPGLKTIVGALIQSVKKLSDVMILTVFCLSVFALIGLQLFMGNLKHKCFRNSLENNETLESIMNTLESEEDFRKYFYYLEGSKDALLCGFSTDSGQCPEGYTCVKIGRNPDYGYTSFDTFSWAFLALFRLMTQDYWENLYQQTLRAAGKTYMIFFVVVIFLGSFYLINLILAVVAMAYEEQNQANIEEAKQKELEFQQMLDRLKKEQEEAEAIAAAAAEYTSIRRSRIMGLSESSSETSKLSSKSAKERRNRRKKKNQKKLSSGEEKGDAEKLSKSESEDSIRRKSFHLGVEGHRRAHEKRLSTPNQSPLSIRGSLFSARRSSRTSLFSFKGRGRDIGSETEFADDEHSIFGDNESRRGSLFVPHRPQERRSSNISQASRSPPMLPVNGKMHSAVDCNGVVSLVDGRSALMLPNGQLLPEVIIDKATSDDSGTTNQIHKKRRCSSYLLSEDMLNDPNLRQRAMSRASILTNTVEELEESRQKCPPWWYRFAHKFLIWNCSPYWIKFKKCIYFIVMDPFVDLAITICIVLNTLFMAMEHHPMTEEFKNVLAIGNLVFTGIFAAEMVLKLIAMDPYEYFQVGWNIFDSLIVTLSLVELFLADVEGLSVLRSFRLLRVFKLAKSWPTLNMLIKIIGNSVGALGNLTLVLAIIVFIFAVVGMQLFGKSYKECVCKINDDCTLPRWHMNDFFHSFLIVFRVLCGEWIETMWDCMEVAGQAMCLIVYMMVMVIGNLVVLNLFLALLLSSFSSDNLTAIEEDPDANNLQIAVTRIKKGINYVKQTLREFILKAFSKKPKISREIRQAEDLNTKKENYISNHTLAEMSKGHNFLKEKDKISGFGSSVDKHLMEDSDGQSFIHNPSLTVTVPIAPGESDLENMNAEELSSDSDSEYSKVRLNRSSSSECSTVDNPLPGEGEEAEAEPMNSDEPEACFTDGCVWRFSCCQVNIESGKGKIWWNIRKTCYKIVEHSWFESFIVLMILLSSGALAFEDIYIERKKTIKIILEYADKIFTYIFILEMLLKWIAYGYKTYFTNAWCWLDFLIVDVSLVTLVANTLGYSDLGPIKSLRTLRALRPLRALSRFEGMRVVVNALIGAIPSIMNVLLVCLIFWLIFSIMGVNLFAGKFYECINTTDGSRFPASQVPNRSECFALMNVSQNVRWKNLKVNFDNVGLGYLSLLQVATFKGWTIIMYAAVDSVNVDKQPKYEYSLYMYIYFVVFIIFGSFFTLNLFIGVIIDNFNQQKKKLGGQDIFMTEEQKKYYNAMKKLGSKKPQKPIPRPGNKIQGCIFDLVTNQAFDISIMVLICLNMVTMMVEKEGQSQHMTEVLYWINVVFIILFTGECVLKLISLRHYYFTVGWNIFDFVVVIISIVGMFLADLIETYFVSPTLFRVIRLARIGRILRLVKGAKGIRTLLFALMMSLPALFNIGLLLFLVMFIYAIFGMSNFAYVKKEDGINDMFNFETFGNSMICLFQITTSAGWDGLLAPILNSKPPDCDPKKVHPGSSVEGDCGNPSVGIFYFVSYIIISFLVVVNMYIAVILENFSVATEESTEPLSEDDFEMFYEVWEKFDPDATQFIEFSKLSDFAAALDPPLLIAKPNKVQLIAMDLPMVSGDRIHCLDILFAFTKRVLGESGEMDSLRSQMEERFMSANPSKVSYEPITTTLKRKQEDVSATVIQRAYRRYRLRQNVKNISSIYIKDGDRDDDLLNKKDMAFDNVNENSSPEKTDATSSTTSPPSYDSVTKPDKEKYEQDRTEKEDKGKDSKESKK

**Q.** How did the IC50 turn out when `COc1cc(-c2cc(F)cc(Cl)c2)c(F)cc1-n1c(=O)ccc2cc(S(=O)(=O)Nc3ccon3)ccc21` (atropisomer, axis not shown; (M)) [Example 478, (M)-1-(3′-chloro-2,5′-difluoro-5-methoxy-4-biphenylyl)-N-3-isoxazolyl-2-oxo-1,2-dihydro-6-quinolinesulfonamide] was run?
**A.** Its IC50 is 816 nM.

**Q.** `COc1ccc(-c2cc(F)cc(Cl)c2)cc1-n1c(=O)ccc2cc(S(=O)(=O)Nc3ccon3)ccc21` [Example 859, 1-(3′-chloro-5′-fluoro-4-methoxy-3-biphenylyl)-N-3-isoxazolyl-2-oxo-1,2-dihydro-6-quinolinesulfonamide] was tested. Which IC50 (in-vitro Nav 1.7 PX data) did it give?
**A.** Its IC50 is 675 nM.

**Q.** For `COc1cc(-c2cccc(C(F)(F)F)c2)c(Cl)cc1-n1c(=O)ccc2cc(S(=O)(=O)Nc3ccon3)ccc21` (atropisomer, axis not shown; (M)) [Example 534, (M)-1-(2-chloro-5-methoxy-3′-(trifluoromethyl)-[1,1′-biphenyl]-4-yl)-N-(isoxazol-3-yl)-2-oxo-1,2-dihydroquinoline-6-sulfonamide], which IC50 is on record?
**A.** Its IC50 is 1350 nM.

**Q.** `COc1cc(-c2ccc(Cl)c(F)c2)c(F)cc1-n1c(=O)ccc2cc(S(=O)(=O)Nc3ccon3)ccc21` (atropisomer, axis not shown; (M)) [Example 504, (M)-1-(4′-chloro-2,3′-difluoro-5-methoxy-4-biphenylyl)-N-3-isoxazolyl-2-oxo-1,2-dihydro-6-quinolinesulfonamide] was tested. Which IC50 (in-vitro PatchXpress (PX)) did it give?
**A.** Its IC50 is 8 nM.

**Q.** How did the IC50 (in-vitro Nav 1.7 PX data) turn out when `COc1ccc(-c2cccc(Cl)c2)cc1-n1c(=O)ccc2cc(S(=O)(=O)Nc3ccon3)ccc21` [Example 841, 1-(3′-chloro-4-methoxy-3-biphenylyl)-N-3-isoxazolyl-2-oxo-1,2-dihydro-6-quinolinesulfonamide] was run?
**A.** The IC50 was 27 nM.

**Q.** `COc1cc(-c2cccc(Cl)c2)ccc1-n1c(=O)ccc2cc(S(=O)(=O)Nc3ccon3)ccc21` [Example 350, P-1-(3′-chloro-3-methoxy-[1,1′-biphenyl]-4-yl)-N-(isoxazol-3-yl)-2-oxo-1,2-dihydroquinoline-6-sulfonamide] was tested. Which IC50 did it give?
**A.** Its IC50 is 26 nM.

**Q.** With `COc1cc(-c2cc(C)cc(C#N)c2)c(F)cc1-n1c(=O)ccc2cc(S(=O)(=O)Nc3ccon3)ccc21` (atropisomer, axis not shown; (P)) [Example 526, (P)-1-(3′-cyano-2-fluoro-5-methoxy-5′-methyl-4-biphenylyl)-N-3-isoxazolyl-2-oxo-1,2-dihydro-6-quinolinesulfonamide] as the compound, how does the IC50 (in-vitro PatchXpress (PX)) read?
**A.** The IC50 was 31 nM.

**Q.** `COc1cc(-c2cc(OC)c(-n3c(=O)ccc4cc(S(=O)(=O)Nc5ncccn5)ccc43)cc2C)ccc1F` [Example 960, 1-(4′-fluoro-3′,5-dimethoxy-2-methyl-4-biphenylyl)-2-oxo-N-2-pyrimidinyl-1,2-dihydro-6-quinolinesulfonamide] was tested. Which IC50 (in-vitro Nav 1.7 PX data) did it give?
**A.** Its IC50 is 36 nM.

**Q.** Which IC50 (in-vitro Nav 1.7 PX data) does the source give for `COc1nc(C#CC2CCCC2)c(Cl)cc1-n1c(=O)ccc2cc(S(=O)(=O)Nc3cccnn3)ccc21` [Example 646, 1-(5-chloro-6-(cyclopentylethynyl)-2-methoxy-3-pyridinyl)-2-oxo-N-3-pyridazinyl-1,2-dihydro-6-quinolinesulfonamide] here?
**A.** The IC50 was 1100 nM.

**Q.** `CC(C#N)Oc1cc(-c2cc(F)cc(F)c2)c(F)cc1-n1c(=O)ccc2cc(S(=O)(=O)Nc3ccon3)ccc21` (stereo not shown) [Example 681, 1-(5-(1-cyanoethoxy)-2,3′,5′-trifluoro-[1,1′-biphenyl]-4-yl)-N-(isoxazol-3-yl)-2-oxo-1,2-dihydroquinoline-6-sulfonamide] was tested. Which IC50 (in-vitro Nav 1.7 PX data) did it give?
**A.** Its IC50 is 458 nM.

**Q.** Which IC50 (in-vitro Nav 1.7 PX data (PatchXpress)) does the source give for `CC(C#N)Oc1cc(Br)c(F)cc1-n1c(=O)ccc2cc(S(=O)(=O)Nc3ccon3)ccc21` (stereo not shown) [Example 680, 1-(4-bromo-2-(1-cyanoethoxy)-5-fluorophenyl)-N-(isoxazol-3-yl)-2-oxo-1,2-dihydroquinoline-6-sulfonamide] here?
**A.** The IC50 was 25400 nM.

**Q.** For `COc1cc(-c2ccc(C)c(F)c2)ccc1-n1c(=O)ccc2cc(S(=O)(=O)Nc3ccon3)ccc21` (atropisomer, axis not shown; (P)) [Example 576, (P)-1-(3′-fluoro-3-methoxy-4′-methyl-4-biphenylyl)-N-3-isoxazolyl-2-oxo-1,2-dihydro-6-quinolinesulfonamide], which IC50 is on record?
**A.** The IC50 was 40 nM.

**Q.** With `COc1cc(CC2CCOCC2)c(F)cc1-n1c(=O)ccc2cc(S(=O)(=O)Nc3ccon3)ccc21` [Example 1121, 1-(5-fluoro-2-methoxy-4-(tetrahydro-2H-pyran-4-ylmethyl)phenyl)-N-3-isoxazolyl-2-oxo-1,2-dihydro-6-quinolinesulfonamide] as the compound, how does the IC50 (in-vitro Nav 1.7 PX data) read?
**A.** Its IC50 is 694 nM.

**Q.** For `COc1cc(CC2CCC2)c(F)cc1-n1c(=O)ccc2cc(S(=O)(=O)Nc3ccon3)ccc21` [Example 1078, 1-(4-(cyclobutylmethyl)-5-fluoro-2-methoxyphenyl)-N-3-isoxazolyl-2-oxo-1,2-dihydro-6-quinolinesulfonamide], which IC50 (in-vitro Nav 1.7 PX data) is on record?
**A.** Its IC50 is 69 nM.

**Q.** With `COc1cc(-c2cccc(Cl)c2)cc(F)c1-n1c(=O)ccc2cc(S(=O)(=O)Nc3ccon3)ccc21` (atropisomer, axis not shown; (P)) [Example 320, (P)-1-(3′-chloro-3-fluoro-5-methoxy-4-biphenylyl)-N-3-isoxazolyl-2-oxo-1,2-dihydro-6-quinolinesulfonamide] as the compound, how does the IC50 read?
**A.** Its IC50 is 141 nM.

**Q.** Which IC50 (in-vitro Nav 1.7 PX data) does the source give for `COc1cc(-c2ccc(F)c(F)c2)c(F)cc1-n1c(=O)ccc2cc(S(=O)(=O)Nc3ncccn3)ccc21` [Example 935, 2-oxo-N-2-pyrimidinyl-1-(2,3′,4′-trifluoro-5-methoxy-4-biphenylyl)-1,2-dihydro-6-quinolinesulfonamide] here?
**A.** The IC50 was 22 nM.

**Q.** `COc1ccccc1-n1c(=O)ccc2cc(S(=O)(=O)Nc3ccon3)ccc21` [Example 1154, N-(isoxazol-3-yl)-1-(2-methoxyphenyl)-2-oxo-1,2-dihydroquinoline-6-sulfonamide] was tested. Which IC50 did it give?
**A.** The IC50 was 10100 nM.

**Q.** Which IC50 does the source give for `COc1ccc(-c2ccnc(F)c2)cc1-n1c(=O)ccc2cc(S(=O)(=O)Nc3ccon3)ccc21` [Example 496, 1-(5-(2-fluoro-4-pyridinyl)-2-methoxyphenyl)-N-3-isoxazolyl-2-oxo-1,2-dihydro-6-quinolinesulfonamide] here?
**A.** Its IC50 is 2770 nM.

**Q.** For `COc1cc(-c2ccc(Cl)c(C)c2)ccc1-n1c(=O)ccc2cc(S(=O)(=O)Nc3ccon3)ccc21` (atropisomer, axis not shown; (P)) [Example 432, (P)-1-(4′-chloro-3-methoxy-3′-methyl-4-biphenylyl)-N-3-isoxazolyl-2-oxo-1,2-dihydro-6-quinolinesulfonamide], which IC50 is on record?
**A.** The IC50 was 9 nM.

**Q.** For `COc1cc(-c2cc(F)cc(Cl)c2)c(F)cc1-n1c(=O)ccc2cc(S(=O)(=O)Nc3ccnc(C)n3)ccc21` [Example 934, 1-(3′-chloro-2,5′-difluoro-5-methoxy-4-biphenylyl)-N-(2-methyl-4-pyrimidinyl)-2-oxo-1,2-dihydro-6-quinolinesulfonamide], which IC50 (in-vitro Nav 1.7 PX data) is on record?
**A.** Its IC50 is 6 nM.

**Q.** How did the IC50 (in-vitro PatchXpress (PX)) turn out when `COc1nc(N2CC(F)(F)C2)c(Cl)cc1-n1c(=O)ccc2cc(S(=O)(=O)Nc3ccon3)ccc21` [Example 342, 1-(5-chloro-6-(3,3-difluoroazetidin-1-yl)-2-methoxypyridin-3-yl)-N-(isoxazol-3-yl)-2-oxo-1,2-dihydroquinoline-6-sulfonamide] was run?
**A.** Its IC50 is 1640 nM.

**Q.** Which IC50 (in-vitro Nav 1.7 PX data) does the source give for `COc1cc(-c2ccc(Cl)cc2)ccc1-n1c(=O)ccc2cc(S(=O)(=O)Nc3ncco3)ccc21` [Example 766, 1-(4′-chloro-3-methoxy-4-biphenylyl)-N-1,3-oxazol-2-yl-2-oxo-1,2-dihydro-6-quinolinesulfonamide] here?
**A.** The IC50 was 37 nM.
